In US20230190887A1, “TARGETING G3BP AGGREGATION TO PREVENT NEURODEGENERATION” (priority 2019, published 2023):
“Also recorded” adds a separate entry of the source.

How the values were obtained:
E18 midbrain neurons = experiment: MPP+-induced neurite degeneration of midbrain neurons; assay type: cell-based, rat; conditions: DIV7 E18 midbrain neurons, 100 μM MPP+ 16-18 hours, with 10 μM peptide
Procedure: To test whether the triggering disassembly of stress granules would be protective in Parkinson's and Alzheimer's disease, the inventors employed 1-methyl-4-phenylpyridinium (MPP+)-induced and amyloid β (Aβ)-mediated neurotoxicity models. Rat embryonic day 18 (E18) midbrain neurons cultured for 7 days were treated for 16-18 hours with 100 μM MPP+, see FIGS. 1A and B, while E18 cortical neurons were treated with 1 μM Aβ oligomer, see FIGS. 2A-2B, with or without 10 μM G3BP1 190-208 or 168-189 peptide. As a control, the inventors used non-treated neurons.
FIG. 1: Cell permeable G3BP1 190-208 peptide rescues MPP+-induced degeneration of midbrain neurons. (A) Representative images for NF-labeled (white) DIV7 E18 midbrain neurons. DIV7 midbrain cultures were treated with 100 μM MPP+ (ii) or control (i) and […] 190-208 G3BP1 peptide (iv) or 168-189 control peptide (iii) [scale bar=100 μm]. (B) Quantification of neurite degeneration in midbrain neurons in control or 100 μM MPP+-treated neurons after addition of 190-208 G3BP1 or 168-189 control peptide. […] (N≥95 over 3 cultures; by one-way ANOVA with Tukey HSD post-hoc).

[1] = test system: G3BP1, TIA1, FMRP, FXR, TDP43 and FUS-TLS aggregates in E18 cortical neurons; experiment: RNA binding protein aggregates along axons of Aβ oligomer-treated cortical neurons; assay type: cell-based, rat; conditions: 1 μM Aβ oligomer 2 hours, then peptide for additional 4 hours
Procedure: The data in FIGS. 13A-F and 14A-F raise the possibility that stress granule targeting therapies like the cell permeable G3BP1 190-208 peptide may decrease or even prevent loss of neurons across different types of neurodegenerative diseases. To address this possibility, the current disclosure asked if the cell permeable G3BP1 190-208 peptide could disassemble pathological protein aggregates in neurons. For this, 7 day cortical neuron cultures were treated with 1 μM A[…] oligomer for 2 hours and then treated with cell permeable G3BP1 190-208 peptide or a scramble sequence cell permeable peptide for an additional 4 hours. […] Thus, the cell permeable G3BP1 190-208 peptide can not only prevent RNA binding protein aggregation in axons after exposure to neurotoxins associated AD and PD, but it can also trigger disassembly of these pathological aggregates after they begin to form.
Representative confocal images for G3BP1. […] Quantifications for co:localization of FMRP, FXR, TDP43, FUS-TLS and TIA1 with G3BP1 in axons of E18 cortical neurons treated as in C are shown as average Pearson's coefficient±SEM (N≥120 aggregates over three repetitions and *p≤0.01, **p≤0.005, ***p≤0.001 for entire population distributions by Fishers exact test for FIG. 15B and FIG. 15D; […] neurons over 3 repetitions and *p≤0.01 **p≤0.005, ***p≤0.001 by one-way ANOVA with Tukey HSD post-hoc for FIG. 15E).

E18 cortical neurons = experiment: Axon growth of cortical neurons in microfluidic devices; assay type: cell-based, rat; conditions: 10 μM peptide applied to axonal compartment at 3 DIV, assessed at 6 DIV
Procedure: For cortical neuron cultures, E18 cortices were dissected in Hibernate E (BrainBits) and dissociated using the Neural Tissue Dissociation kit (Miltenyi Biotec). For this, minced cortices were incubated in a pre-warmed enzyme mix at 37° C. for 15 min; tissues were then triturated and applied to a 40 μm cell strainer.
After washing and centrifugation, neurons were seeded at a density of 1×10^5 cells per poly-D-lysine-coated microfluidic device (Xona Microfluidics). NbActive-1 medium (BrainBits) supplemented with 100 U/ml of Penicillin-Streptomycin (Life Technologies), 2 mM L-glutamine (Life Technologies), and 1×N21 supplement (R&D Systems) was used as culture medium.
For peptide treatments, 10 μM Tat-fused peptides were added to dissociated DRG cultures at 2 or 12 h after plating. Neurite outgrowth was assessed 24 h after addition of peptides. For the cortical cultures, 10 μM peptide was applied to the axonal compartment at 3 d in vitro (DIV) and axonal growth was assessed at 6 DIV. For iMotor neurons, 20 μM peptides were immediately added and neurite growth was assessed 24 h later.

E12.5 motor neurons = experiment: MPP+-induced degeneration of motor neuron neurites (in vitro ALS model); assay type: cell-based, mouse; conditions: DIV7 E12.5 motor neurons, 100 μM MPP+ 16-18 hours, with 10 μM peptide
Procedure: Non-treated cultures were used as controls (FIG. 3A).
(A) Quantification of mitotoxin/neurotoxin MPP+-induced degeneration of DIV7 E12.5 motor neuron neurites after exposure of cultures to 100 μM MPP+ and either 10 μM 190-208 G3BP1 or 168-189 control peptide. As controls, neurons treated with solvents were used. (B) Representative images of G3BP1 (green) and NF-labeled (red) E12.5 motor neurons under control or after treatment with 100 μM MPP+ [scale bar=10 μm]. (C) distribution of sizes of endogenous G3BP1 aggregate per 100 μm neurite is shown as indicated bins from motor neurons cultures as treated in (B). (N≥80 neurites over three repetitions; by one-way ANOVA with Tukey HSD post-hoc). […] (D) Endogenous G3BP1 aggregate sizes per 100 μm neurite indicated as bins for motor neurons either untreated or treated with MPP+ alone or with addition of 10 μM 190-208 G3BP1 or 168-189 control peptide. […] (N≥90 over 3 cultures; by one-way ANOVA with Tukey HSD post-hoc)

With “YGNKKNNNQNNN-VVEPEPEPEPEPEPEPVSE [G3BP1 190-208 peptide]” the neurite degeneration (E18 midbrain neurons; listed as 190-208 peptide) was “significant decrease in MPP+-induced degeneration”, the neurite degeneration (E18 midbrain neurons; listed as G3BP1 190-208) was “prevented neurite degeneration” and the “TIA1, FMRP, FXR, TDP43 and FUS-TLS colocalization with G3BP1” value [1] was “significantly decreased”. For the same substance, the “size of G3BP1, TIA1, FMRP, FXR, TDP43 and FUS-TLS aggregates along axons” value [1] was “significantly decreased size; also recorded: reduction in amyloid beta treatment dependent G3BP1-associated protein aggregates”, the axon growth (E18 cortical neurons) was “significant increase in axon growth” and the “MPP+-induced degeneration of motor neuron neurites” value (E12.5 motor neurons) was “prevents mitotoxin-induced degeneration”. The “MPP+-induced degeneration of motor neuron neurites” value (E12.5 motor neurons; listed as G3BP1 190-208) was “protected against MPP+-induced degeneration”.
